PubChem BioAssay (NCI)
Several values for one entry are separate records, joined by “and”; a condition that tells them apart may be missing. Identical values can stand only once.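 A five-concentration, 48-hour dose response in 96-well plates underlies each endpoint, interpolated linearly between surrounding concentrations. GI50 is the concentration that inhibits growth by half. TGI: concentration producing complete growth inhibition.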

Experiments:
Assay in all cases: DTP human tumour cell line panel, 48 h
[1] = system: 786-0 renal
[2] = system: HCT-15 colon
[3] = system: SK-OV-3 ovarian
[4] = system: SF-268 CNS
[5] = system: MOLT-4 leukemia
[6] = system: LOX IMVI melanoma
[7] = system: PC-3 prostate
[8] = system: KM12 colon
[9] = system: K-562 leukemia
[10] = system: CAKI-1 renal

Structure (SMILES): COc1cc(-c2nn(-c3cccc(NC(=O)Nc4ccc(Cl)c(C(F)(F)F)c4)c3)cc2-c2ccncc2)ccc1Cl
- GI50 [1]: 1.61 µM
- TGI [1]: 8.02 µM
- GI50 [2]: 1.23 µM
- TGI [2]: 7.05 µM
- GI50 [3]: 1.45 µM
- TGI [3]: 13 µM
- GI50 [4]: 1.46 µM
- TGI [4]: 9.14 µM
- GI50 [5]: 1.02 µM
- TGI [5]: 7.96 µM
- GI50 [6]: 1.17 µM
- TGI [6]: 4.61 µM
- GI50 [7]: 0.69 µM
- TGI [7]: 2.45 µM
- GI50 [8]: 1.06 µM
- TGI [8]: 3.91 µM
- GI50 [9]: 1.21 µM
- TGI [9]: > 32.5 µM
- GI50 [10]: 0.992 µM
- TGI [10]: 4.72 µM

Structure (SMILES): Cc1ccc2c(C(C[N+](=O)[O-])c3ccccc3)c(-c3ccccc3)[nH]c2c1 (centres undefined)
- GI50 [1]: 40.3 µM
- TGI [1]: > 95 µM
- GI50 [2]: 20.7 µM
- TGI [2]: > 95 µM
- GI50 [3]: 33.8 µM
- TGI [3]: > 95 µM
- GI50 [4]: 73.3 µM
- TGI [4]: > 95 µM
- GI50 [5]: 34 µM
- TGI [5]: > 95 µM
- GI50 [6]: 38.2 µM
- TGI [6]: > 95 µM
- GI50 [7]: 20.9 µM
- TGI [7]: > 95 µM
- GI50 [8]: 21.6 µM
- TGI [8]: > 95 µM
- GI50 [9]: 7.14 µM
- TGI [9]: > 95 µM
- GI50 [10]: 4.73 µM
- TGI [10]: > 95 µM

Structure (SMILES): CCCc1nn(C)c2c(=O)[nH]c(-c3cc(S(=O)(=O)N4CCN(C)CC4)ccc3OCC)nc12
- GI50 [1]: > 100 µM
- TGI [1]: > 100 µM
- GI50 [2]: > 100 µM
- TGI [2]: > 100 µM
- GI50 [3]: > 100 µM
- TGI [3]: > 100 µM
- GI50 [4]: > 100 µM
- TGI [4]: > 100 µM
- GI50 [5]: > 100 µM
- TGI [5]: > 100 µM
- GI50 [6]: > 100 µM
- TGI [6]: > 100 µM
- GI50 [7]: > 100 µM
- TGI [7]: > 100 µM
- GI50 [8]: > 100 µM
- TGI [8]: > 100 µM
- GI50 [9]: > 100 µM
- TGI [9]: > 100 µM
- GI50 [10]: > 100 µM
- TGI [10]: > 100 µM

Structure (SMILES): CC1(C)N=C(N)N=C(N)N1c1ccc(CNC(=O)Nc2ccc(S(=O)(=O)F)c(Cl)c2)c(Cl)c1
- GI50 [1]: 0.872 µM
- TGI [1]: > 100 µM
- GI50 [2]: 4.87 µM
- TGI [2]: > 100 µM
- GI50 [3]: > 45 µM
- TGI [3]: > 100 µM
- GI50 [4]: 0.686 µM
- TGI [4]: > 100 µM
- GI50 [5]: 0.954 µM
- TGI [5]: > 100 µM
- GI50 [6]: 0.396 µM
- TGI [6]: > 100 µM
- GI50 [7]: 0.0677 µM
- TGI [7]: > 100 µM
- GI50 [8]: 0.589 µM
- TGI [8]: > 100 µM
- GI50 [9]: 0.257 µM
- TGI [9]: > 100 µM
- GI50 [10]: 12.5 µM
- TGI [10]: > 100 µM

Structure (SMILES): CN1C(=O)CCC(N2C(=O)c3cccc(NCCOCCOCCNC(=O)c4cc5c(o4)C(=O)c4ccccc4C5=O)c3C2=O)C1=O (centres undefined)
- GI50 [1]: 2.27 µM
- TGI [1]: 5.64 µM
- GI50 [2]: 1.77 µM
- TGI [2]: 3.83 µM
- GI50 [3]: 3.84 µM
- TGI [3]: 12.4 µM
- GI50 [4]: 2.38 µM
- TGI [4]: 6.79 µM
- GI50 [5]: 2.38 µM
- TGI [5]: 5.8 µM
- GI50 [6]: 1.11 µM
- TGI [6]: 3 µM
- GI50 [7]: 2.07 µM
- TGI [7]: 18 µM
- GI50 [8]: 3.35 µM
- TGI [8]: 12.6 µM
- GI50 [9]: 2.13 µM
- TGI [9]: 6.52 µM
- GI50 [10]: 3.35 µM
- TGI [10]: 12.1 µM

Structure (SMILES): COc1ccc(Br)cc1NC(=O)Nc1cccc2c1ccn2Cc1ccnc(N)c1
- GI50 [1]: 8.57 µM and 8.88 µM
- TGI [1]: 27.5 µM and > 10 µM
- GI50 [2]: 2.44 µM and 2.94 µM
- TGI [2]: 6.31 µM and > 10 µM
- GI50 [3]: 8.38 µM and > 10 µM
- TGI [3]: 26.3 µM and > 10 µM
- GI50 [4]: 6.16 µM and > 10 µM
- TGI [4]: 32.5 µM and > 10 µM
- GI50 [5]: 3.06 µM and 3.14 µM
- TGI [5]: 18.9 µM and > 10 µM
- GI50 [6]: 1.83 µM and 2.18 µM
- TGI [6]: 3.66 µM and 5.14 µM
- GI50 [7]: 4.52 µM and 4.5 µM
- TGI [7]: > 54.8 µM
- GI50 [8]: 2.57 µM and 4.27 µM
- TGI [8]: 8.23 µM and > 10 µM
- GI50 [9]: 2.41 µM and 2.75 µM
- TGI [9]: 8.38 µM and > 10 µM
- GI50 [10]: 4.79 µM and 8.78 µM
- TGI [10]: 21.5 µM and > 10 µM

Structure (SMILES): CCC1=C(c2ccc(OC)cc2)C(C)(C)Oc2c1ccc(O)c2CN1CCCC1
- GI50 [1]: 4.02 µM
- TGI [1]: 20.2 µM
- GI50 [2]: 1.91 µM
- TGI [2]: 4.44 µM
- GI50 [3]: 8.23 µM
- TGI [3]: > 100 µM
- GI50 [4]: 8.8 µM
- TGI [4]: > 100 µM
- GI50 [5]: 2.18 µM
- TGI [5]: 6.53 µM
- GI50 [6]: 1.46 µM
- TGI [6]: 2.8 µM
- GI50 [7]: 2.58 µM
- TGI [7]: 29.3 µM
- GI50 [8]: 1.91 µM
- TGI [8]: 3.9 µM
- GI50 [9]: 0.759 µM
- TGI [9]: 3.1 µM
- GI50 [10]: 2.95 µM
- TGI [10]: 30.4 µM

Structure (SMILES): C[C@@H]1C[C@H](N)C[C@H](c2ccncc2NC(=O)c2ccc(F)c(-c3c(F)cccc3F)n2)C1
- GI50 [1]: 12.2 µM and > 10 µM
- TGI [1]: 25.6 µM and > 10 µM
- GI50 [2]: 11.6 µM and > 10 µM
- TGI [2]: 25.7 µM and > 10 µM
- GI50 [3]: 12.7 µM and > 10 µM
- TGI [3]: 26.8 µM and > 10 µM
- GI50 [4]: 10.8 µM and > 10 µM
- TGI [4]: 25.3 µM and > 10 µM
- GI50 [5]: 4.91 µM and 5.14 µM
- TGI [5]: 20.6 µM and > 10 µM
- GI50 [6]: 10.6 µM and > 10 µM
- TGI [6]: 23.3 µM and > 10 µM
- GI50 [7]: 3.83 µM and 2.68 µM
- TGI [7]: 17.5 µM and > 10 µM
- GI50 [8]: 12.3 µM and > 10 µM
- TGI [8]: 27.7 µM and > 10 µM
- GI50 [9]: 4.1 µM and 4.22 µM
- TGI [9]: 21.3 µM and > 10 µM
- GI50 [10]: 7.51 µM
- TGI [10]: > 10 µM

Structure (SMILES): O=c1cc(-c2ccc(F)cc2)[nH]c2ncccc12
- GI50 [1]: 44.3 µM
- TGI [1]: > 100 µM
- TGI [2]: > 100 µM
- TGI [3]: > 100 µM
- TGI [4]: > 100 µM
- TGI [5]: > 100 µM
- TGI [6]: > 100 µM
- GI50 [7]: 46.1 µM
- TGI [7]: > 100 µM
- TGI [8]: > 100 µM
- TGI [9]: > 100 µM
- TGI [10]: > 100 µM

Structure (SMILES): Cc1cc2c(F)c(Oc3ncnc(Nc4ccc(N5C[C@@H](C)N[C@@H](C)C5)cc4)c3C#N)cc(F)c2[nH]1
- GI50 [1]: 1.62 µM
- TGI [1]: 3.64 µM
- GI50 [2]: 1.73 µM
- TGI [2]: 4.24 µM
- GI50 [3]: 3.91 µM
- TGI [3]: 13.7 µM
- GI50 [4]: 2.07 µM
- TGI [4]: 8.36 µM
- GI50 [5]: 1.67 µM
- TGI [5]: 5.44 µM
- GI50 [6]: 1.6 µM
- TGI [6]: 3.08 µM
- GI50 [7]: 3.05 µM
- TGI [7]: 11.4 µM
- GI50 [8]: 2.55 µM
- TGI [8]: 7.3 µM
- GI50 [9]: 1.62 µM
- TGI [9]: 3.83 µM
- GI50 [10]: 2.99 µM
- TGI [10]: 10.9 µM

Structure (SMILES): COc1nc(N)nc2c1ncn2C1CC(O)C(CO)O1 (centres undefined)
- TGI [1]: > 100 µM
- TGI [2]: > 100 µM
- TGI [3]: > 100 µM
- TGI [4]: > 100 µM
- TGI [5]: > 100 µM
- TGI [6]: > 100 µM
- TGI [7]: > 100 µM
- TGI [8]: > 100 µM
- TGI [9]: > 100 µM
- TGI [10]: > 100 µM

Structure (SMILES): O=C(O)c1cccc(S(=O)(=O)NCCO)c1
- TGI [1]: > 100 µM
- TGI [2]: > 100 µM
- TGI [3]: > 100 µM
- TGI [4]: > 100 µM
- TGI [5]: > 100 µM
- TGI [6]: > 100 µM
- TGI [7]: > 100 µM
- TGI [8]: > 100 µM
- TGI [9]: > 100 µM
- TGI [10]: > 100 µM

Structure (SMILES): Cc1c(CN2CCN(C(=O)[C@H](C)O)CC2)sc2c(N3CCOCC3)nc(-c3cnc(N)nc3)nc12
- GI50 [1]: 0.38 µM and 0.159 µM
- TGI [1]: 4.72 µM and 1.11 µM
- GI50 [2]: 0.258 µM and 0.248 µM
- TGI [2]: > 100 µM
- GI50 [3]: 0.123 µM and 0.112 µM
- TGI [3]: 1.13 µM and 0.573 µM
- GI50 [4]: 0.328 µM and 0.204 µM
- TGI [4]: > 10 µM and 27.1 µM
- GI50 [5]: 0.175 µM and 0.139 µM
- TGI [5]: > 10 µM and 12.7 µM
- GI50 [6]: 0.153 µM and 0.179 µM
- TGI [6]: 3.05 µM and 2.64 µM
- GI50 [7]: 0.122 µM and 0.0753 µM
- TGI [7]: > 100 µM
- GI50 [8]: 0.755 µM and 0.393 µM
- TGI [8]: > 10 µM and 15.2 µM
- GI50 [9]: 1.5 µM and 2.39 µM
- TGI [9]: > 100 µM
- GI50 [10]: 0.159 µM and 0.213 µM
- TGI [10]: > 4.52 µM and 2.14 µM

Structure (SMILES): NC(=O)c1cc(N2CC2)c([N+](=O)[O-])cc1[N+](=O)[O-]
- GI50 [1]: > 200 µM
- TGI [1]: > 200 µM
- TGI [2]: > 200 µM
- GI50 [3]: > 200 µM
- TGI [3]: > 200 µM
- GI50 [4]: > 200 µM
- TGI [4]: > 200 µM
- TGI [5]: > 63.2 µM
- GI50 [6]: > 200 µM
- TGI [6]: > 200 µM
- TGI [7]: > 200 µM
- GI50 [8]: > 200 µM
- TGI [8]: > 200 µM
- GI50 [9]: > 200 µM
- TGI [9]: > 200 µM
- GI50 [10]: > 200 µM
- TGI [10]: > 200 µM
